For the experiment, the system named is Plasmodium berghei. Kind of experiment: Luciferase/luciferin-expressing antifolate-resistant parasites were used to infect a culture of HepG2 cells that were pre-incubated with compounds. Infected hepatocytes emit light due to the luciferase reaction. Assay results are presented as the percent inhibition of light emission compared to control. […]. The format is functional. Conditions: sporozoite; for IC90: read-out: LUCIFERASE INFECTION ASSAY - IC90.

Setting [1] is: read-out: LUCIFERASE INFECTION ASSAY - IC50.

pIC50: −log10 of the molar value.

One may read the pIC50 as the negative decadic logarithm of the IC50, by convention in mol/L. What is called IC90 is the concentration needed for an effect of 90%. As to `COc1cc(Nc2ncc3c(n2)CCN(C(=O)Nc2ccc(F)c(Cl)c2)C3)cc(OC)c1OC`, the IC90 was > 6.76 µM. The pIC50 (HEPG2TOX_HILL_SLOPE 3.56, HEPG2TOX_R_SQUARED 0.576, PBLUC_HILL_SLOPE 6.46, PBLUC_R_SQUARED 0.101, read-out: LUCIFERASE INFECTION ASSAY - IC50) is 5.30.

In the case of `Cn1nc(CC(=O)N2CC(C(=O)N3CCCCC3)Oc3ccccc32)c2ccccc2c1=O` (configuration not stated), the IC90 was > 10 µM. Moreover, under setting [1], the pIC50 is < 5.00.

Take `OCc1ccc(-c2cn3c(-c4ccc5c(c4)OCO5)cnc3cn2)cc1`: the IC90 was > 9.56 µM. Where the note is “PBLUC_HILL_SLOPE 1.17, PBLUC_R_SQUARED 0.649, read-out: LUCIFERASE INFECTION ASSAY - IC50”, the pIC50 is 5.41.

With `CCOc1cc(CN(C)c2cncc(-n3cccn3)n2)ccc1OC(F)F`, the IC90 was > 10 µM. Further, the pIC50 under setting [1] was < 5.00.

With `FC(F)(F)c1nc(N2CCN(c3ccncc3)CC2)c2ccccc2n1`, the IC90 was > 10 µM. Also, the pIC50 (PBLUC_HILL_SLOPE 1.73, PBLUC_R_SQUARED 0.515, read-out: LUCIFERASE INFECTION ASSAY - IC50) was 5.39.

Turning to `CN(C)C(=O)c1ccc(-c2cnc3cnc(-c4ccc(F)c(Cl)c4)cn23)cc1`, the IC90 is > 8.36 µM. Besides, the pIC50 under setting [1] is < 5.08.

As for `COc1cc(-c2cnc3cnc(-c4ccccc4Cl)cn23)ccc1O`, the 90% effect concentration (IC90) is > 9.38 µM. For the same compound, for the setting “PBLUC_HILL_SLOPE 17.8, PBLUC_R_SQUARED 0.0398, read-out: LUCIFERASE INFECTION ASSAY - IC50”, the pIC50 was 5.08.

As to `CCn1cc(C(=O)OC)c(=O)c2cc(C(F)(F)F)ccc21`, the IC90 is > 11 µM. Moreover, the pIC50 (PBLUC_HILL_SLOPE 2.56, PBLUC_R_SQUARED 0.477, read-out: LUCIFERASE INFECTION ASSAY - IC50) is 5.24.

Turning to `CCC(C)(C)c1ccc(Oc2ccc(NC(=O)CSc3cccc[n+]3[O-])cc2)cc1`, the IC90 was > 10 µM. In addition, the pIC50 under setting [1] was < 5.00.

Regarding `CN1/C(=C\C(=O)CSc2nnc3c(n2)[nH]c2ccccc23)C(C)(C)c2ccccc21`, the IC90 was > 10 µM. For the same compound, the pIC50 (HEPG2TOX_HILL_SLOPE 7.55, HEPG2TOX_R_SQUARED 0.316, read-out: LUCIFERASE INFECTION ASSAY - IC50) is < 5.00.

For `CC(C)c1ccc(NC2=NN=C(c3cccs3)CS2)cc1`, the IC90 is > 10 µM. In addition, the pIC50 (HEPG2TOX_HILL_SLOPE 7.09, HEPG2TOX_R_SQUARED 0.364, read-out: LUCIFERASE INFECTION ASSAY - IC50) is < 5.00.

`Cc1ccc(Nc2nc(N)nc(CN(C)Cc3nc(=O)c4ccccc4[nH]3)n2)cc1`: the IC90 came to 8.22 µM. In addition, for the setting “PBLUC_HILL_SLOPE 2.75, PBLUC_R_SQUARED 0.503, read-out: LUCIFERASE INFECTION ASSAY - IC50”, the pIC50 is 5.43.

As for `CNc1nn(C(=O)Nc2cccc(C(F)(F)F)c2)cc1[N+](=O)[O-]`, the IC90 is > 10 µM. For the same compound, under “PBLUC_HILL_SLOPE 3.4, PBLUC_R_SQUARED 0.508, read-out: LUCIFERASE INFECTION ASSAY - IC50”, the pIC50 is 5.25.

Regarding `O=[N+]([O-])c1c[nH]c(-c2csc(-n3nccc3C(F)(F)F)n2)c1`, the IC90 worked out at 4.09 µM. Under setting [1], the pIC50 was 5.74.

Take `O=C1CCCC2=Nc3ccc4ccccc4c3C(c3ccc(F)cc3F)C12` (configuration not stated): the IC90 was > 10 µM. Further, the pIC50 (FFLUC_HILL_SLOPE 2.36, FFLUC_R_SQUARED 0.309, read-out: LUCIFERASE INFECTION ASSAY - IC50) was < 5.00.

For `Cn1ccc2cc(-c3cnc4cnc(-c5ccccc5Cl)cn34)ccc21`, the IC90 was found to be 0.043 µM. Further, the pIC50 (HEPG2TOX_HILL_SLOPE 0.673, HEPG2TOX_R_SQUARED 0.619, PBLUC_HILL_SLOPE 2.33, PBLUC_R_SQUARED 0.732, read-out: LUCIFERASE INFECTION ASSAY - IC50) was 7.77.

Regarding `CC1(C(=O)NC(=S)NNc2nc3ccccc3[nH]2)CC1(Cl)Cl` (configuration not stated), the IC90 is > 10 µM. For the same compound, the pIC50 (HEPG2TOX_HILL_SLOPE 1.8, HEPG2TOX_R_SQUARED 0.951, read-out: LUCIFERASE INFECTION ASSAY - IC50) is < 5.00.

For `CC(OC(=O)C1CC1)C(=O)Nc1ccnn1C(C)C` (configuration not stated), the IC90 was > 10 µM. In addition, the pIC50 under setting [1] is < 5.00.

Turning to `O=C(Nc1cccc(SC(F)(F)C(F)(F)C(F)(F)F)c1)C1(S(=O)(=O)c2ccccc2)CC1`, the IC90 was > 10 µM. For the same compound, the pIC50 under setting [1] is < 5.00.

On to `Cc1nc2cc(NC(=O)CCCSc3nc4ccccc4[nH]3)ccc2o1`, for which the IC90 is > 10 µM. For the same compound, the pIC50 (PBLUC_HILL_SLOPE 4.06, PBLUC_R_SQUARED 0.0694, read-out: LUCIFERASE INFECTION ASSAY - IC50) is 5.00.

Regarding `CN(C)c1ccc(C(c2cc(C(C)(C)C)c(O)c(C(C)(C)C)c2)N2CCN(CCO)CC2)cc1` (configuration not stated), the IC90 was > 10 µM. For the same compound, the pIC50 (FFLUC_HILL_SLOPE 1.7, FFLUC_R_SQUARED 0.646, PBLUC_HILL_SLOPE 0.736, PBLUC_R_SQUARED 0.152, read-out: LUCIFERASE INFECTION ASSAY - IC50) is < 5.00.

On to `Cc1nc2ncnn2c(C)c1CC(=O)NCCCSc1ccc(F)cc1`, for which the IC90 is > 10 µM. Further, under setting [1], the pIC50 is < 5.00.

As for `O=C(NCCOc1ccc2ccccc2c1)c1ccccc1O`, the IC90 was > 10 µM. The pIC50 (PBLUC_HILL_SLOPE 7.72, PBLUC_R_SQUARED 0.601, read-out: LUCIFERASE INFECTION ASSAY - IC50) is 5.03.

For `N=C(NOC(=O)Nc1cccc(C(F)(F)F)c1)c1ccc(Oc2c(Cl)cncc2Cl)cc1`, the IC90 was > 6.8 µM. For the same compound, the pIC50 (HEPG2TOX_HILL_SLOPE 7.08, HEPG2TOX_R_SQUARED 0.63, PBLUC_HILL_SLOPE 1.44, PBLUC_R_SQUARED 0.448, read-out: LUCIFERASE INFECTION ASSAY - IC50) was 5.31.

Take `N#C/C(=C\c1ccc(N(c2ccccc2)c2ccccc2)cc1)C(=O)Nc1nccs1`: the IC90 is 1.79 µM. The pIC50 under setting [1] was 6.28.

On to `Cc1cc(-c2nc(C)sc2CC(=O)O)c(C)s1`, for which the IC90 is > 10 µM. For the same compound, under setting [1], the pIC50 was < 5.00.

`O=C(CCCC(=O)Nc1cc(C(F)(F)F)cc(C(F)(F)F)c1)Nc1cc(C(F)(F)F)cc(C(F)(F)F)c1`: the IC90 is > 5.95 µM. The pIC50 under setting [1] was 5.97.

Turning to `Cc1ccc(S(=O)(=O)NN=c2nc[nH]c3sccc23)cc1`, the IC90 is 5.7 µM. Also, the pIC50 under setting [1] was 5.59.

As to `N#Cc1ccsc1NC(=O)COC(=O)c1c2c(nc3ccccc13)/C(=C/c1cccc([N+](=O)[O-])c1)CCC2`, the IC90 was > 10 µM. For the same compound, the pIC50 (HEPG2TOX_HILL_SLOPE 2.36, HEPG2TOX_R_SQUARED 0.622, PBLUC_HILL_SLOPE 3.04, PBLUC_R_SQUARED 0.408, read-out: LUCIFERASE INFECTION ASSAY - IC50) was 5.11.

As for `Cc1cc(OCCCC(=O)NC2CCN(Cc3ccccc3)CC2)ccc1Cl`, the IC90 is > 10 µM. For the same compound, the pIC50 (PBLUC_HILL_SLOPE 3.22, PBLUC_R_SQUARED 0.455, read-out: LUCIFERASE INFECTION ASSAY - IC50) was 5.27.

With `Cc1nn2c(=O)cc(C(C)C)[nH]c2c1-c1ccccc1`, the 90% effect concentration (IC90) was 10.5 µM. Also, the pIC50 (PBLUC_HILL_SLOPE 3.42, PBLUC_R_SQUARED 0.611, read-out: LUCIFERASE INFECTION ASSAY - IC50) is 5.26.

On to `CC(Sc1nnc(/C=C/c2ccc(F)cc2)[nH]1)C(=O)NC(C)(C)C` (configuration not stated), for which the IC90 was found to be 5.34 µM. In addition, the pIC50 under setting [1] is 5.68.

For the compound `NC(=O)c1cccc(-c2cn3c(-c4ccccc4)cnc3cn2)c1`, the IC90 was > 10.5 µM. Besides, the pIC50 (HEPG2TOX_HILL_SLOPE 0.15, HEPG2TOX_R_SQUARED 0.654, PBLUC_HILL_SLOPE 0.762, PBLUC_R_SQUARED 0.254, read-out: LUCIFERASE INFECTION ASSAY - IC50) was < 4.98.

On to `Cc1noc(N)c1-c1nc(-c2cccc(C(F)(F)F)c2)cs1`, for which the 90% effect concentration (IC90) was > 10.1 µM. In addition, for the setting “HEPG2TOX_HILL_SLOPE 3.53, HEPG2TOX_R_SQUARED 0.703, read-out: LUCIFERASE INFECTION ASSAY - IC50”, the pIC50 is < 5.00.

Regarding `O=C(COCc1ccccc1)Nc1nc2ccccn2c1C(=O)NC1CCCCC1`, the IC90 was > 8.12 µM. The pIC50 under setting [1] was < 5.09.

With `COCCCNC(=S)Nc1cccc2ccccc12`, the IC90 was > 12 µM. Moreover, the negative-log IC50 (pIC50) (HEPG2TOX_HILL_SLOPE 10.4, HEPG2TOX_R_SQUARED 0.777, PBLUC_HILL_SLOPE 18.1, PBLUC_R_SQUARED 0.604, read-out: LUCIFERASE INFECTION ASSAY - IC50) was 4.93.

Take `Cn1ccc2cc(-c3cnc4cnc(-c5ccc(C(=O)NCCO)cc5)cn34)ccc21`: the IC90 was found to be 7.65 µM. In addition, under setting [1], the pIC50 was 5.21.

Consider `CC1C(c2ccccc2)N(C)C(c2ccccc2)CC1(O)c1ccc(F)cc1` (configuration not stated), for which the IC90 is > 8.01 µM. For the same compound, under “PBLUC_HILL_SLOPE 3.61, PBLUC_R_SQUARED 0.228, read-out: LUCIFERASE INFECTION ASSAY - IC50”, the pIC50 was 5.13.

Take `CSc1c(C#N)c(-c2ccc(Cl)cc2)nn1C(=O)c1ccccc1Cl`: the IC90 was > 8.5 µM. The pIC50 under setting [1] was < 5.07.

As to `CN(CC(=O)Nc1ccc(OC(F)(F)F)cc1)Cc1cc(=O)n2c([nH]c3ccccc32)c1C#N`, the IC90 is > 10 µM. The pIC50 (HEPG2TOX_HILL_SLOPE 2.12, HEPG2TOX_R_SQUARED 0.883, PBLUC_HILL_SLOPE 1.9, PBLUC_R_SQUARED 0.564, read-out: LUCIFERASE INFECTION ASSAY - IC50) is 5.31.

As for `c1ccc(Nc2nc(-c3ccc4c(c3)CCC4)cs2)nc1`, the IC90 was > 10 µM. For the same compound, under “PBLUC_HILL_SLOPE 1.40, 0.464, PBLUC_R_SQUARED 0.303, 0.681, read-out: LUCIFERASE INFECTION ASSAY - IC50”, the pIC50 was 5.32.

(Values after ChEMBL document CHEMBL4483862, “Open-source discovery of chemical leads for next-generation chemoprotective antimalarials” (2018).)
